The results in this text go back to US20260327204A1, “DEGRADERS OF CYCLIN-DEPENDENT KINASE 12/13, COMPOSITIONS, AND USES THEREOF” (ZHEJIANG UNIVERSITY, priority 2023, published 2026).

A value given as a limit tells only on which side of the number the result lay.

In one assay the target is CDK13 (Homo sapiens, UniProt Q14004). Briefly: Western blot degradation of CDK13 (Example 3). Format: cell-based. Set-up: degradation of CDK12/13 protein in leukemia cells KASUMI-1, MV4-11, and Jurkat; endogenous in cells. The conditions noted are these: DC50 classes; cell line not given; read-out: CDK13 degradation Activity.
Another assay addresses CDK12 (Homo sapiens, UniProt Q9NYV4). Description: Western blot degradation of CDK12 (Example 3). Format: cell-based. Set-up: degradation of CDK12/13 protein in leukemia cells KASUMI-1, MV4-11, and Jurkat; endogenous in cells. Particulars: DC50 classes, cell line not given; for DC50: read-out: CDK12 degradation Activity. A general note: In western blotting, separated proteins are transferred to a membrane and probed.

Chain of CDK13 (Q14004 whole entry): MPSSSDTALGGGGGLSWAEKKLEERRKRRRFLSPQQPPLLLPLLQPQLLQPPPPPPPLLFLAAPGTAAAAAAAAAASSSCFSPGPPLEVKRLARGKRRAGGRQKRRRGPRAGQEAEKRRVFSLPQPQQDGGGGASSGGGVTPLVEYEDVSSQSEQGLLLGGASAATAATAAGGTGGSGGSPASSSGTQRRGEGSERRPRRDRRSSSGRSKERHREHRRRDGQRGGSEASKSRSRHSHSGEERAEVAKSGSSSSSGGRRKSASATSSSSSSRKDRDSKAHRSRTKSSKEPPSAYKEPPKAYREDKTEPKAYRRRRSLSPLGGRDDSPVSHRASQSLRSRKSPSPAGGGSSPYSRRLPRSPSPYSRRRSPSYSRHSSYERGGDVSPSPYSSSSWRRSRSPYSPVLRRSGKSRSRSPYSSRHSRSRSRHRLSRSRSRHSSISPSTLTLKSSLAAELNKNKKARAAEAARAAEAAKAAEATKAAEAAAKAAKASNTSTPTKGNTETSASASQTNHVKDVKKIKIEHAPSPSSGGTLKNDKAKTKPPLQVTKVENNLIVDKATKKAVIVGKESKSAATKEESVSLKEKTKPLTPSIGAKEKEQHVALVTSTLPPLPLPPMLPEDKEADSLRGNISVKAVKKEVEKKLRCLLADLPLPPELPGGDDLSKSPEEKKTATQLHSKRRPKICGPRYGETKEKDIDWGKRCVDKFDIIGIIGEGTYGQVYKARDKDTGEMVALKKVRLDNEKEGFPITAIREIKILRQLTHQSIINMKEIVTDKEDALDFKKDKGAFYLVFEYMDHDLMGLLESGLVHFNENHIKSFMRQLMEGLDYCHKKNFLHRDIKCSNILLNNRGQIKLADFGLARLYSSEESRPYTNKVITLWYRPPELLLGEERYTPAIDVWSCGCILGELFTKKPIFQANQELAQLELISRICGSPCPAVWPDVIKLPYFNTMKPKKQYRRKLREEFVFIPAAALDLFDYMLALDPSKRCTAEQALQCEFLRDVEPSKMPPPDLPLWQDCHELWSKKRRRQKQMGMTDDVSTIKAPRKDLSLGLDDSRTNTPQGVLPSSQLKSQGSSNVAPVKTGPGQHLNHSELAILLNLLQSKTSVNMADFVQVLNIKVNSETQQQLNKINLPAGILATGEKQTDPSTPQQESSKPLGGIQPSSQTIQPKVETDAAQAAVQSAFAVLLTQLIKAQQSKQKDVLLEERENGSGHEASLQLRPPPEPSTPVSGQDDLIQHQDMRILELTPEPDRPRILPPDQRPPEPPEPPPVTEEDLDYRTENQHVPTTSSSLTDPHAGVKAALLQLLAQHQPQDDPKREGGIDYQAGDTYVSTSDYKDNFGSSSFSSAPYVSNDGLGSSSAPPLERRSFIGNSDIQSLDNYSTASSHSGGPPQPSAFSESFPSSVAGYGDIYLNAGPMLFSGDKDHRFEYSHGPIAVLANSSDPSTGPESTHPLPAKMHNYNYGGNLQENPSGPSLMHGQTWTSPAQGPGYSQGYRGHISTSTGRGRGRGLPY
Chain of CDK13 (O75909 whole entry partner): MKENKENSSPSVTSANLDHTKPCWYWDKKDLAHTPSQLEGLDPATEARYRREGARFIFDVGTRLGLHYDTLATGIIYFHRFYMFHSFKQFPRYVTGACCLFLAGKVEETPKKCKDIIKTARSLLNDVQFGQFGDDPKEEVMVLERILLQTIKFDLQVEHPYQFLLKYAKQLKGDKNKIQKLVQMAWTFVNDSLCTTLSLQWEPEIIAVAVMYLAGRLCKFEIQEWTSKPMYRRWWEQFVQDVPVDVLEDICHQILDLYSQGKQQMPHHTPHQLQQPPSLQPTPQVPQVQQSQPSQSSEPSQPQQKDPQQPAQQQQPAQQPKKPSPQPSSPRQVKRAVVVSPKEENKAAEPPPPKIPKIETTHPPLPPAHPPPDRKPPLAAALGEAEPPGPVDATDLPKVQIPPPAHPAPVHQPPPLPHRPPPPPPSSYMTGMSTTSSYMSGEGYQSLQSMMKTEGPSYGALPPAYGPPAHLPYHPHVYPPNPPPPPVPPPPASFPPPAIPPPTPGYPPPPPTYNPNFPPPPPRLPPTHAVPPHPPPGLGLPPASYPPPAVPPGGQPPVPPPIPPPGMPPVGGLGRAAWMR
Chain of CDK12 (Q9NYV4 whole entry): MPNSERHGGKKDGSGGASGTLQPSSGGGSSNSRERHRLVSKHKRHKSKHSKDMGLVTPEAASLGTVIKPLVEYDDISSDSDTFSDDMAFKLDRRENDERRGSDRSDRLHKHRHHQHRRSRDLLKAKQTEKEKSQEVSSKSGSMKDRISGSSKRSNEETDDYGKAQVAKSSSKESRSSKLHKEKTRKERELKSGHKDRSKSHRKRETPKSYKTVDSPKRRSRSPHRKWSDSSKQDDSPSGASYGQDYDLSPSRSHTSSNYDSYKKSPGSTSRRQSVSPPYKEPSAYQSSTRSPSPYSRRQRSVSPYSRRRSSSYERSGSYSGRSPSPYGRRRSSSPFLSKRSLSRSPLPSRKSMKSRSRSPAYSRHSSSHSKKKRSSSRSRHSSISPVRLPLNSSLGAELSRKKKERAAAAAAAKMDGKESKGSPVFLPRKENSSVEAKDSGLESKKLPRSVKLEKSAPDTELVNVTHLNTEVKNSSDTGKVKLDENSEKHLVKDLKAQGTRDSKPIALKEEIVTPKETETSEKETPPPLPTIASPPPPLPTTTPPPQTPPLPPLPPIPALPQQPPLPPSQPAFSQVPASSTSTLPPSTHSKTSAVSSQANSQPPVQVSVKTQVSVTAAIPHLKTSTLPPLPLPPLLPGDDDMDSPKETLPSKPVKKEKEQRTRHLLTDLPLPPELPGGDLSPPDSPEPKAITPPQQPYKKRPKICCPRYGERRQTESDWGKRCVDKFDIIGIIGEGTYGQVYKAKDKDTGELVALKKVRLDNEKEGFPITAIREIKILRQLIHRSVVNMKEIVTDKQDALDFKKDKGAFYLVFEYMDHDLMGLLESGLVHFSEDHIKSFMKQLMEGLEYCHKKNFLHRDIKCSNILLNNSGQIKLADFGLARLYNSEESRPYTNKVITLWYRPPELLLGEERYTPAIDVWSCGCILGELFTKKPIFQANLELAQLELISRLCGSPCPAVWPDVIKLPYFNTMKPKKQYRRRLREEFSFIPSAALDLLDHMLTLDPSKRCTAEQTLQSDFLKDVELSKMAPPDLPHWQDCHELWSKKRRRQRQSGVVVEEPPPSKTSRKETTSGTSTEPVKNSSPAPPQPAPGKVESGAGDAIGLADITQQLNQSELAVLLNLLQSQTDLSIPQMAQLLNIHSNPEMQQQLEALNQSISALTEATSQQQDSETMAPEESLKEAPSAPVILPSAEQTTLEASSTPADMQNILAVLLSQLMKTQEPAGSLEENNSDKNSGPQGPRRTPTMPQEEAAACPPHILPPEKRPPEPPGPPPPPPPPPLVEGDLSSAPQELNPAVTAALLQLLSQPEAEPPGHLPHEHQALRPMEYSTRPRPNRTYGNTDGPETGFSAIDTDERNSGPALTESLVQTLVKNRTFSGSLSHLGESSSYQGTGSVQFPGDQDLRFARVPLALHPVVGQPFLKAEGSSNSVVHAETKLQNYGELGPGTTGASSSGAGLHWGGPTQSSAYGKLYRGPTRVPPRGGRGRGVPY
Chain of CDK12 (O75909 whole entry partner): as the sequence (O75909 whole entry partner) above

Regarding `CC(=O)N(c1ccc(N2CCN(C3CCN(c4ccc5c(c4)C(=O)N(C4CCC(=O)NC4=O)C5=O)C3)CC2)cc1)[C@H]1CC[C@H](Nc2ncc3ccccc3n2)CC1` (stereo partly drawn) [Formula 125, N-(4-(4-(1-(2-(2,6-dioxopiperidin-3-yl)-1,3-dioxoisoindolin-5-yl)pyrrolidin-3-yl)piperazin-1-yl)phenyl)-N-((1R,4R)-4-(quinazolin-2-ylamino)cyclohexyl)acetamide], the DC50 on CDK13 was 3 to 10 µM; at CDK12, 1 to 3 µM.
On the same counts, the results for `CC(=O)N(c1ccc(N2CCN(CC3CN(c4ccc5c(c4)C(=O)N(C4CCC(=O)NC4=O)C5=O)C3)CC2)cc1)[C@H]1CC[C@H](Nc2ncc3ccccc3n2)CC1` (stereo partly drawn) [Formula 127, N-(4-(4-((1-(2-(2,6-dioxopiperidin-3-yl)-1,3-dioxoisoindolin-5-yl)azetidin-3-yl)methyl)piperazin-1-yl)phenyl)-N-((1R,4R)-4-(quinazolin-2-ylamino)cyclohexyl)acetamide] are 0.5 to 1 µM and 0.5 to 1 µM.
Turning to `CC(=O)N(c1ccc(-c2ccc(N3CCN(C(=O)N[C@H](C(=O)N4C[C@H](O)CC4C(=O)N[C@@H](C)c4ccc(-c5scnc5C)cc4)C(C)(C)C)CC3)nc2)cc1)[C@H]1CC[C@H](Nc2ncc3ccccc3n2)CC1` (stereo partly shown) [Formula 145], the DC50 on CDK13 is 3 to 10 µM. Further, the “CDK12 degradation Activity” value on CDK12 is given as “−”.
In the case of `CC(=O)N(c1ccc(-c2cnn(C3CCN(CC(=O)N[C@H](C(=O)N4C[C@H](O)C[C@H]4C(=O)N[C@@H](C)c4ccc(-c5scnc5C)cc4)C(C)(C)C)CC3)c2)cc1)[C@H]1CC[C@H](Nc2ncc3ccccc3n2)CC1` [Formula 139], the DC50 at CDK13 and on CDK12 was 1 to 3 µM throughout.
As to `CC(=O)N(c1ccc(-c2cnc(N3CCN(c4ccc5c(c4)C(=O)N(C4CCC(=O)NC4=O)C5=O)CC3)nc2)cc1)[C@H]1CC[C@H](Nc2ncc3ccccc3n2)CC1` (stereo partly shown) [Formula 107], the DC50 on CDK13 and at CDK12 was less than 0.1 µM each time.
In the case of `CC(=O)N(c1ccc(-c2cnc(N3CCN(c4cc(NC5CCC(=O)NC5=O)ccc4F)CC3)nc2)cc1)[C@H]1CC[C@H](Nc2ncc3ccccc3n2)CC1` (stereo partly drawn) [Formula 130, N-(4-(2-(4-(5-((2,6-dioxopiperidin-3-yl)amino)-2-fluorophenyl)piperazin-1-yl)pyrimidin-5-yl)phenyl)-N-((1R,4R)-4-(quinazolin-2-ylamino)cyclohexyl)acetamide], the DC50 at CDK13 and at CDK12 was 1 to 3 µM throughout.
For `CC(=O)N(c1ccc(-c2ccc(N3C[C@H]4C[C@@H]3CN4CC(=O)N[C@H](C(=O)N3C[C@H](O)C[C@H]3C(=O)N[C@@H](C)c3ccc(-c4scnc4C)cc3)C(C)(C)C)nc2)cc1)[C@H]1CC[C@H](Nc2ncc3ccccc3n2)CC1` [Formula 143, (2S,4R)-1-((S)-3,3-dimethyl-2-(2-((1R,4R)-5-(5-(4-(N-((1R,4S)-4-(quinazolin-2-ylamino)cyclohexyl)acetamido)phenyl)pyridin-2-yl)-2,5-diazabicyclo[2.2.1]heptan-2-yl)acetamido)butanoyl)-4-hydroxy-N—((S)-1-(4-(4-methylthiazol-5-yl)phenyl)ethyl)pyrrolidine-2-carboxamide], the DC50 at CDK13 and on CDK12 was 0.1 to 0.5 µM in each case.
Turning to `CC(=O)N(c1ccc(-c2cnc(N3C[C@@H]4C[C@H]3CN4CC(=O)N[C@H](C(=O)N3C[C@H](O)C[C@H]3C(=O)N[C@@H](C)c3ccc(-c4scnc4C)cc3)C(C)(C)C)nc2)cc1)[C@H]1CC[C@H](Nc2ncc3ccccc3n2)CC1` [Formula 142, (2S,4R)-1-((S)-3,3-dimethyl-2-(2-((1S,4S)-5-(5-(4-(N-((1R,4S)-4-(quinazolin-2-ylamino)cyclohexyl)acetamido)phenyl)pyrimidin-2-yl)-2,5-diazabicyclo[2.2.1]heptan-2-yl)acetamido)butanoyl)-4-hydroxy-N—((S)-1-(4-(4-methylthiazol-5-yl)phenyl)ethyl)pyrrolidine-2-carboxamide], the DC50 at CDK13 and on CDK12 was less than 0.1 µM in each case.
